Data taken from US20050250110A1, “PNA conjugate for treating chronic myeloid leukemia (CML)” (priority 2001, published 2005).

Experiments:
[1] = system: tumor cell line K562 (Ph-positive); experiment: Growth behavior of K562 cells following administration of PNA conjugates (cell number, Coulter Counter); type: cell-based
[2] = system: tumor cell line K562; experiment: Apoptosis behavior of K562 cells: cell number after 24 h treatment and subsequent PNA removal; type: cell-based; settings: 100 nM for 24 h
Description: The cell number change is shown on a time axis. The treatment was carried out for 24 h and by means of subsequent PNA removal. Final concentration: 100 nM. Dark blue line: AS conjugate; magenta: random sequence conjugate; yellow: AS-non-ligated; blue: untreated control.
The question of the apoptosis behavior following the administration of a conjugate according to the invention (corresponding to Example 3 and FIG. 6) was studied as such. The incubation period was 24 hours with 5% CO2 at 37° C. in an incubator. Having removed the medium mixture and carrying out a wash step twice using fresh RPMI-1640, the same volume of fresh medium was added by pipetting and further cultured. The medium was changed every 72 hours. The cultures were treated as before: As in the previous experiment, a break-down of the untreated culture was again found after about 72 hours. […] The relative stability up to 144 hours following the removal of antisense NLS-PNA was striking in the culture treated with antisense NLS-PNA.

## Transport peptide (penetratin)-disulfide bridge-NLS—KK(FITC)—PNA^BCR/Abl (sequence of PNA^BCR/Abl: H2N-TGCGTGTGGATGATTCTTTGTTTTAA-COOH) [antisense NLS penetratin]
[1]; 100 nM, in contrast to the controls
  phenotype of the treated cells: vital phenotype
[1]; final concentration 100 nM, treatment throughout the experiment
  stabilization of the cell number, time after the treatment: 24 h
[1]; final concentration 100 nM, treatment throughout the experiment, compared with untreated control
  growth behavior (cell number change on a time axis): stagnation of the cell proliferation
[2]; then PNA removal
  relative stability of the culture, time following PNA removal: up to 144 hours
  time of the maximum cell number following PNA removal: 120 h
[2]; then PNA removal and further culture, medium changed every 72 hours
  cell growth / cell number after PNA removal: minor increase in the cell number
